Where two headings read alike, the source gives them in different places.
Tests used:
plasma cholesterol = assay: Hypocholesterolemic activity in rats on a hypercholesterolemic diet; format: in vivo, rat; settings: male rats, 4 days, Altromin C 1061 hypercholesterolemic diet, dose which reduces plasma cholesterol by half relative to controls
Procedure: 2) Hypocholesterolemic activity
Male rates (160-180 g) are subjected for 4 days to an Altromin C 1061 hypercholesterolemic diet, and concomitantly treated orally with compounds suspended in a 2% solution of Tween 80 in distilled water.
On day 5, the animals, which have not fasted, are anesthethized with ethyl ether and exsanguinated by drawing blood at the abdominal aorta onto EDTA. The blood is immediately centrifuged and the plasma stored at 4° C.
Plasma cholesterol is then assayed by the CHOD-PAP method (Boehringer-Mannheim Ref. 237574). The median effective dose (ED50) corresponds to the dose which reduces the plasma cholesterol concentration by half relative to control animals.

Human LDL = assay: Antioxidant activity: oxidation of LDL by CuSO4 (TBARS); format: biochemical; settings: human LDL oxidized with 10 μM CuSO4, 6 hours, TBARS at 532 nm
[1] = system: hepatic microsomal lipids (rat liver microsomes); assay: Antioxidant activity: chemical peroxidation of hepatic microsomal lipids (TBARS); format: biochemical; settings: Fe3+/ADP/dihydroxyfumaric acid
Excerpt: a) Chemical peroxidation.
In the presence of Fe^3+ and ADP, dihydroxyfumaric acid undergoes an autoxidation which generates oxygen free radicals. The latter bring about the peroxidation of hepatic microsomal lipids.

[2] = molecular target: ACAT (acyl-CoA:cholesterol O-acyl-transferase enzyme); assay: Inhibition of ACAT in vitro; format: biochemical, rat; settings: technique of H. Chautan et al.
Excerpt: The compounds were studied for their inhibitory effect on ACAT and hypocholesterolemic effect in rats, on the one hand, and for their antioxidant effect, on the other hand.

[3] = Rattus norvegicus, po, 96 h, read-out: ED50

IC50 (Human LDL) [µM]	IC50 [1] [µM]	IC50 [2] [µM]	Molecule	ED50 (plasma cholesterol; oral) [mg/kg]	ED50 (plasma cholesterol; [3]) [mg/kg]
4			CCCCCCCCCCCCSC(C(=O)Nc1cc(C)c(O)c(C)c1C)c1ccccc1 (single isomer, unassigned; (+)) [Compound 16, (+)-2',3',5'-Trimethyl-4'-hydroxy-α-dodecylthio-α-phenylacetanilide]	0.15	
100	> 10		CCCCCCCCCCC(C)(C)C(=O)Nc1c(OC)cc(OC)cc1OC [CI 976, reference compound]		8.3
	5	0.3	CCCCCCCCCCCCSCC(=O)Nc1cc(C)c(O)c(C)c1C [Compound 2, 2',3',5'-Trimethyl-4'-hydroxy-α-(dodecylthio)acetanilide]		> 10
	> 10	0.31	CCCCCCCCCCCCSC(CC)C(=O)Nc1cc(C)c(O)c(C)c1C (stereo not drawn) [Compound 3, 2',3',5'-Trimethyl-4'-hydroxy-α-(dodecylthio)butyranilide]		4
10	0.5	0.16	CCCCCCCCCCCCSC(CCCC)C(=O)Nc1cc(C)c(O)c(C)c1C (stereo not drawn) [Compound 4, 2',3',5'-Trimethyl-4'-hydroxy-α-(dodecylthio)hexananilide]		0.5
	5	0.63	CCCCCCCCCCCCSC(C(=O)Nc1cc(C)c(O)c(C)c1C)C(C)C (stereo not drawn) [Compound 5, 2',3',5'-Trimethyl-4'-hydroxy-α-(dodecylthio)isovaleranilide]		1
	0.3	0.11	CCCCCCCCCCCCSC(CCC)C(=O)Nc1cc(C)c(O)c(C)c1C (stereo not drawn) [Compound 6, 2',3',5'-Trimethyl-4'-hydroxy-α-(dodecylthio)valeranilide]		1
13	0.6		CCCCCCCCCCCCSC(C(=O)Nc1cc(C)c(O)c(C)c1C)c1ccccc1 (stereo not drawn) [Compound 7, 2',3',5'-Trimethyl-4'-hydroxy-α-dodecylthio-α-phenylacetanilide]		0.2
	3	0.19	CCCCCCCCCCCCSC(C)(C)C(=O)Nc1cc(C)c(O)c(C)c1C [Compound 8, 2',3',5'-Trimethyl-4'-hydroxy-α-(dodecylthio)isobutyranilide]		10
		1.12	Cc1cc(NC(=O)C(C)(C)Sc2ccc(Cl)cc2)c(C)c(C)c1O [Compound 9, 2',3',5'-Trimethyl-4'-hydroxy-α-(p-chlorophenylthio)isobutyranilide]		
		1.1	Cc1cc(NC(=O)C(C)(C)Oc2ccc(Cl)cc2)c(C)c(C)c1O [Compound 11, 2',3',5'-Trimethyl-4'-hydroxy-α-(p-chlorophenoxy)isobutyranilide]		
3			CCCCCCCCCCCC[S+]([O-])C(C)(C)C(=O)Nc1cc(C)c(O)c(C)c1C (stereo not drawn) [Compound 12, 2',3',5'-Trimethyl-4'-hydroxy-α-(dodecylsulfinyl)bobutyranilide]		
			CCCCCCCCCCCCSC(C(=O)Nc1cc(C)c(O)c(C)c1C)c1ccc(OC)cc1 (stereo not drawn) [Compound 14, 2',3',5'-Trimethyl-4-hydroxy-α-dodecylthio-α-(p-methoxyphenyl)acetanilide]		1
30	> 10		CCCCCCCN(CCCCCSc1nc(-c2ccccc2)c(-c2ccccc2)[nH]1)C(=O)Nc1ccc(F)cc1F [DUP 128, reference compound]		1.1
10	2.3		Vitamin E [reference compound]		

From US5990173A, “2,3,5-trimethyl-4-hydroxyanilide derivatives, preparation thereof and therapeutical use thereof” (Pierre Fabre Medicament, priority 1995, dated 1999)
